Measurements from the NIST ThermoML archive (doi:10.1016/j.jct.2016.02.009).

Settings: for molar entropy: 101.33 kPa, Small (less than 1 g) adiabatic calorimetry; for vapor or sublimation pressure: Calculated from knudsen effusion weight loss; for Triple point temperature: Adiabatic calorimetry

CCCCCCCCCCCCCCn1cc[n+](C)c1.O=S(=O)([N-]S(=O)(=O)C(F)(F)F)C(F)(F)F
Settings	molar entropy [J/K/mol]	vapor or sublimation pressure [kPa]
5 K, Crystal 2	1.17	–
10 K, Crystal 2	7.53	–
15 K, Crystal 2	18.57	–
20 K, Crystal 2	32.77	–
25 K, Crystal 2	48.94	–
30 K, Crystal 2	66.22	–
35 K, Crystal 2	84.11	–
40 K, Crystal 2	102.3	–
45 K, Crystal 2	120.5	–
50 K, Crystal 2	138.7	–
60 K, Crystal 2	174.7	–
70 K, Crystal 2	209.8	–
80 K, Crystal 2	244	–
90 K, Crystal 2	277.1	–
100 K, Crystal 2	309.3	–
110 K, Crystal 2	340.5	–
120 K, Crystal 2	370.8	–
130 K, Crystal 2	400.3	–
140 K, Crystal 2	429.1	–
150 K, Crystal 2	457.2	–
160 K, Crystal 2	484.6	–
170 K, Crystal 2	511.6	–
180 K, Crystal 2	538.1	–
190 K, Crystal 2	564.2	–
200 K, Crystal 2	589.9	–
210 K, Crystal 2	615.5	–
220 K, Crystal 2	640.8	–
230 K, Crystal 2	666	–
240 K, Crystal 2	691.3	–
250 K, Crystal 2	716.7	–
260 K, Crystal 2	742.5	–
270 K, Crystal 2	769.1	–
280 K, Crystal 2	797.3	–
290 K, Crystal 2	829.7	–
295.5 K, Crystal 1	850.6	–
295.5 K, Crystal 2	850.6	–
298.15 K, Crystal 1	860.5	–
300 K, Crystal 1	866	–
308.77 K, Crystal 1	891.2	–
308.77 K, Liquid	1037	–
310 K, Liquid	1041	–
320 K, Liquid	1070	–
330 K, Liquid	1098	–
340 K, Liquid	1125	–
350 K, Liquid	1152	–
360 K, Liquid	1179	–
370 K, Liquid	1205	–
498.07 K, Liquid	–	2.76e-05
503.06 K, Liquid	–	3.85e-05
508.05 K, Liquid	–	5.39e-05
513.05 K, Liquid	–	7.45e-05
518.04 K, Liquid	–	0.0001018
523.05 K, Liquid	–	0.0001397
528.05 K, Liquid	–	0.0001898

Settings	Triple point temperature [K]
Crystal 1	308.77
Crystal 2	295.5

CCCCCCCCCCn1cc[n+](C)c1.O=S(=O)([N-]S(=O)(=O)C(F)(F)F)C(F)(F)F
Settings	molar entropy [J/K/mol]
5 K, Crystal 2	1.18
10 K, Crystal 2	7.33
15 K, Crystal 2	17.93
20 K, Crystal 2	31.5
25 K, Crystal 2	46.8
30 K, Crystal 2	63.01
35 K, Crystal 2	79.61
40 K, Crystal 2	96.26
50 K, Crystal 2	129.2
60 K, Crystal 2	161.4
70 K, Crystal 2	192.7
80 K, Crystal 2	222.8
90 K, Crystal 2	252
100 K, Crystal 2	280.3
110 K, Crystal 2	307.8
120 K, Crystal 2	334.4
130 K, Crystal 2	360.4
140 K, Crystal 2	385.8
150 K, Crystal 2	410.5
160 K, Crystal 2	434.8
170 K, Crystal 2	458.6
180 K, Crystal 2	482.1
190 K, Crystal 2	505.4
200 K, Crystal 2	528.6
210 K, Crystal 2	551.8
220 K, Crystal 2	575.2
230 K, Crystal 2	599.3
240 K, Crystal 2	625.2
249 K, Crystal 1	653.6
249 K, Crystal 2	653.6
252 K, Crystal 1	662.4
260 K, Crystal 1	682.3
270 K, Crystal 1	707.5
277.33 K, Crystal 1	726.3
277.33 K, Liquid	829.8
280 K, Liquid	836.9
290 K, Liquid	863.1
298.15 K, Liquid	883.9
300 K, Liquid	888.6
310 K, Liquid	913.5
320 K, Liquid	937.9
330 K, Liquid	961.7
340 K, Liquid	985.1
350 K, Liquid	1008
360 K, Liquid	1031
370 K, Liquid	1053

Settings	Triple point temperature [K]
Crystal 1	277.33
Crystal 2	249

CCCCCCCCCCCCCCCCn1cc[n+](C)c1.O=S(=O)([N-]S(=O)(=O)C(F)(F)F)C(F)(F)F
Settings	molar entropy [J/K/mol]	vapor or sublimation pressure [kPa]
5 K, Crystal 2	1.23	–
10 K, Crystal 2	7.81	–
15 K, Crystal 2	19.15	–
20 K, Crystal 2	33.76	–
25 K, Crystal 2	50.4	–
30 K, Crystal 2	68.27	–
35 K, Crystal 2	86.83	–
40 K, Crystal 2	105.7	–
45 K, Crystal 2	124.7	–
50 K, Crystal 2	143.7	–
60 K, Crystal 2	181.5	–
70 K, Crystal 2	218.5	–
80 K, Crystal 2	254.6	–
90 K, Crystal 2	289.6	–
100 K, Crystal 2	323.6	–
110 K, Crystal 2	356.7	–
120 K, Crystal 2	388.9	–
130 K, Crystal 2	420.2	–
140 K, Crystal 2	450.7	–
150 K, Crystal 2	480.4	–
160 K, Crystal 2	509.6	–
170 K, Crystal 2	538.1	–
180 K, Crystal 2	566.1	–
190 K, Crystal 2	593.7	–
200 K, Crystal 2	621	–
210 K, Crystal 2	647.9	–
220 K, Crystal 2	674.5	–
230 K, Crystal 2	701.1	–
240 K, Crystal 2	727.5	–
250 K, Crystal 2	754.1	–
260 K, Crystal 2	780.8	–
270 K, Crystal 2	808.1	–
280 K, Crystal 2	836.2	–
290 K, Crystal 2	866.1	–
298.15 K, Crystal 2	893.4	–
300 K, Crystal 2	900.3	–
305.5 K, Crystal 1	922.5	–
305.5 K, Crystal 2	922.5	–
310 K, Crystal 1	941	–
319.25 K, Crystal 1	971.3	–
319.25 K, Liquid	1132	–
320 K, Liquid	1134	–
330 K, Liquid	1164	–
340 K, Liquid	1194	–
350 K, Liquid	1222	–
360 K, Liquid	1251	–
370 K, Liquid	1279	–
508.07 K, Liquid	–	3.21e-05
513.07 K, Liquid	–	4.5e-05
518.07 K, Liquid	–	6.31e-05
523.07 K, Liquid	–	8.75e-05
528.06 K, Liquid	–	0.0001197
533.07 K, Liquid	–	0.0001644

Settings	Triple point temperature [K]
Crystal 1	319.25
Crystal 2	305.5
